Results taken from paper PMC12186257, “Serendipitous and Systematic Chemoproteomic Discovery of MBLAC2, HINT1, and NME1‑4 Inhibitors from Histone Deacetylase-Targeting Pharmacophores” (ACS Chemical Biology, 2025).

Target: recombinant HINT1 (hHint1) (Homo sapiens, UniProt P49773)
Assay: HINT1 enzyme activity assay (TrpA hydrolysis, fluorescence)
Format: biochemical
Settings: hHint1 0.002 µM, TrpA 0.5 µM, 25 °C
From the text: While the biologically relevant substrates of HINT1 have not been clearly elucidated, the protein has been implicated in opioid receptor signaling, − regulation of the melanoma-associated transcription factor MITF, , and DNA damage repair. These functions position HINT1 as a potential pharmacological target for treating conditions such as opioid resistance or melanoma. The only reported HINT1-targeting pharmacophores are nucleoside-based nonhydrolyzable substrate analogs, such as the carbamate TrpGC (Figure a). , We evaluated the inhibitory potential of KV-24 and KV-30 in enzyme activity assays using recombinant HINT1. […] This discrepancy could be attributed to reduced affinity for the recombinant enzyme due to the absence of post-translational modifications (PTMs), cofactors, or interaction partners that enhance drug binding. Alternatively, it might result from substrate dilution in the lysate, whereas high substrate concentrations in the enzyme activity assay require the inhibitor to compete more effectively.
Mouse brain proteomics – LC-MS/MS. Proteome analysis of brain mouse tissue samples was performed on a micro-flow LC timsTOF HT setup described in detail in REF14. Liquid chromatography in micro-flow mode was performed on a Vanquish Neo UHPLC System (Thermo Fisher Scientific) at a flow rate of 50 µL/min. […] 10 µg of peptide mix was injected and analyzed using a 58 min gradient starting at 1% B up to 45% B (1 h method). […]
Mouse proteomics data analysis. The data files were analyzed with DIA-NN 1.8.1. […] The resulting protein group tables were further analyzed by Perseus 1.6.2.2. […]
CME of transferrin and confocal microscopy analyses.For transferrin uptake experiments HeLa cells were seeded on Matrigel-coated coverslips, and incubated with 0.1 % DMSO, or with 100 µM dynasore, 20 µM KV50, 2 µM KV65, or 2 µM KV79 in media containing 10% FCS at 37°C for 20 h. […] All inhibitor treatments were performed in duplicate, to enable quantification of surface levels of transferrin receptors, and to assess the capability of transferrin receptor endocytosis. […]

recombinant HINT1 (hHint1), sequence (P49773 whole entry): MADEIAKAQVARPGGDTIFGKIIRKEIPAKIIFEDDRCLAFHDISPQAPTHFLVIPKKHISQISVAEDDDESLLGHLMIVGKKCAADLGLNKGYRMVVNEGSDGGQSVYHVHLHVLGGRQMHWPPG

IC50 [µM]	Compound
12.6	O=C(NO)c1ccc(-c2nc3ccccc3c3ccccc23)cc1 [KV-30]
12.3	O=C(NO)c1ccc(-c2nc3ccccc3n3cccc23)cc1 [KV-24]
